BindingDB's records for patent US10774051 (SHIONOGI & CO., LTD., 2020)

Molecular target: T1, P2X purinoceptor 7 [Y155H,R270H] (Homo sapiens, UniProt Q99572, R270H/Y155H)
T1 construct: gene P2RX7
Assay: Evaluation of a Human P2X7 Receptor Inhibitory Activity
Protocol: Stably expressing cell line (1321N1 cell transfected with the human P2X7 receptor gene (GenBank accession number NM_002562.5 including T606C and G952A SNP)) was used. The cells were seeded in a 384-well microtiter plate at a concentration of 8000 cells/well and cultured in the medium (10% fetal bovine serum, 25 mM HEPES, 1% penicillin and streptomycin in DMEM) for one day at 37° C. under 5% carbon dioxide atmosphere. After replacing with 20 μL of the HBSS buffer (20 mM HEPES, 55.6 mM D-glucose, 1×HBSS(−), pH7.4-7.5), 15 μL of 17.3 μM Yo-Pro solution in the HBSS buffer was added. The plate was placed in high-throughput cellular screening system FLIPR TETRA (Molecullar Devices, LLC.) and 15 μL of 130 μM BzATP solution in the HBSS buffer was added. Measurement of fluorescence intensity by FLIPR TETRA was started. After eight minutes, 15 μL of DMSO solutions containing different concentrations of the compound of the present invention as prepared by dilution with the HBSS buffer were dispensed to each well through the built-in automatic dispenser, and the measurement of fluorescence intensity was continued for 20 minutes. […] Changing values of fluorescence intensity by the compound of the present invention were calculated by difference between maximum and minimum fluorescence intensity for 20 minutes. IC50 was calculated using logistic approximation.

T1 sequence (Q99572 whole entry Y155H/R270H, looked up): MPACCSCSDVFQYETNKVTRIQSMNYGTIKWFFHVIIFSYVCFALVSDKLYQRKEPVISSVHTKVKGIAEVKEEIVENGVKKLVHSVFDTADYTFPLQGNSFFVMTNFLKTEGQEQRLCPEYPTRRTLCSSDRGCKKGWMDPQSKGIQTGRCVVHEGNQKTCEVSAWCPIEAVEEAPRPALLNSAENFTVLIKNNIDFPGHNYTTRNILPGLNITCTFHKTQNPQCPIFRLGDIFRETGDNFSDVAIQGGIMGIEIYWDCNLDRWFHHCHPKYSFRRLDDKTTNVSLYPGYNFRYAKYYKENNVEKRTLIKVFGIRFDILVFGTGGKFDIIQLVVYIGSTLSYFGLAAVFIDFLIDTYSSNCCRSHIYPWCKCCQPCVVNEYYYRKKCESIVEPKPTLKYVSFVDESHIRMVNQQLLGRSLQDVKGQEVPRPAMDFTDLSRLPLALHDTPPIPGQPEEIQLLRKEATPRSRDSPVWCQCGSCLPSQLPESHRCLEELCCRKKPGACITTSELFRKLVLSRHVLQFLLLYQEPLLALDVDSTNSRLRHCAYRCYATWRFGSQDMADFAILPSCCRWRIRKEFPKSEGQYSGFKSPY

Question: `COc1cn(Cc2cc(F)c(F)c(F)c2)c(Nc2cccc(Cl)c2C)nc1=O` [US10774051, Compound I-0004] was tested. Which IC50 did it give?
Answer: Its IC50 is less than 10 nM.
